Test results reported in patent US10080761B2, “Method for treating recurring skin and mucous membrane diseases caused by HSV-1 and HSV-2” (priority 2013, dated 2018).

System: HSV-1 or HSV-2 infection
Assay: Treatment of a herpes relapse in patients with medium or severe recurring form (Example 1)
Format: in vivo
Conditions: many years of earlier treatment, cream and pills

Nc1nc2c(ncn2COCCO)c(=O)[nH]1 [Aciclovir]
reduction of the number of relapses by previously used preparations: did not reduce the number of relapses
